Where two headings read alike, the source gives them in different places.
Assays:
[1] = tested on: gut bacterial strains (hits of the interaction screen); experiment: Depletion-mode assay: supernatant vs total extraction; conditions: 50 μM drug, 48 h, GMM
Procedure: If the drug is only depleted in the supernatant, the drug is likely a bioaccumulated, whereas if the drug is also depleted in the extraction of the total fraction a biodegradation is likely.
(§1) All liquid chromatography methods are run on a Waters Acquity UPLC H-Class instrument with a PDA detector and a quaternary solvent system. All established methods are 5 minutes long, have a flow rate of 0.5 ml/min and run on a CSH C18 column (Waters, Part number 186005297) in reverse mode. The column is heated to 40° C. and samples are kept at 6° C. All methods use 50% acetonitrile (Biosolve, ULC grade) for washing buffer, and 50% methanol (Biosolve, ULC grade) for purging buffer. As organic mobile phase acetonitrile was used. The assay was optimized using only two buffers besides water as hydrophilic mobile phase: 5 mM formic acid (Biosolve, ULC grade) of pH 3.2 and 5 mM ammonium formate (Ammonium hydroxide, ACS grade, Sigma) with pH adjusted to 8.3 using the formic acid buffer.
Bacteria from second passage culture are inoculated with an OD578 of 0.01 in 1 mL GMM containing 50 μM drug of interest in 2 mL eppendorf tubes and incubated for 48 h while shaking. After finishing growth, the cultures were removed from the anaerobic chamber. […]

25 gut bacterial strains [2] = experiment: Bacteria-drug interaction screen: drug depletion from supernatant (UV-UPLC); conditions: 50 μM drug, 48 h anaerobic growth
Procedure: as §1
For all drugs, a fixed concentration of 50 µM was used, which in most cases approximates the concentration of one pill (0.02-3 mmol) diluted in the volume of the gut (approx. 2.5 L). One bacteria-free control per plate and drug, but triplicates for each bacteria-drug interaction was screened. […] Growth was monitored with measurements of the optical density at 578 nm using an Eon Microplate Spectrophotometer (BIOTEK) approximately every 2 h for the first 10 h, then approximately every 6 h. […]

25 gut bacterial strains [3] = experiment: Growth effect (OD578) in the bacteria-drug interaction screen; assay type: cell-based, human gut bacteria; conditions: 50 μM drug, 25 strains
Procedure: (§2) For all drugs, a fixed concentration of 50 µM was used, which in most cases approximates the concentration of one pill (0.02-3 mmol) diluted in the volume of the gut (approx. 2.5 L). One bacteria-free control per plate and drug, but triplicates for each bacteria-drug interaction was screened. The screen was carried out under anaerobic conditions in 96-well plates (NUNCLON Delta Surface 163320, NUNC) with 150 μl GMM as the growth medium sealed with a Breathe-Easy® sealing membrane (Z380059, SIGMA-ALDRICH). Plates containing 100 μl of the medium and 75 μM of the drug were prepared beforehand, stored at −20° C. and used as needed. Frozen plates were introduced into the anaerobic chamber the evening before inoculation. Wells were inoculated with 50 μl of a second passage culture with an end OD578 of 0.01. Growth was monitored with measurements of the optical density at 578 nm using an Eon Microplate Spectrophotometer (BIOTEK) approximately every 2 h for the first 10 h, then approximately every 6 h. After 48 h, plates were removed from the anaerobic chamber and the bacteria spinned down (4000 rpm, 10 min). […] All liquid handling outside of anaerobic chamber was done using a liquid handling robot (FXp, BIOMEK). […] The bacteria-drug interaction screen was conducted with two biological replicates.

[4] = cited from earlier work
gut bacterial strains = experiment: Testing for anticommensal activity at higher concentrations (validation of side effect-based predictions); assay type: cell-based
Procedure: Compounds of interest were purchased from independent sources and if possible, dissolved at 5 mM concentration in mGAM. Lower concentrations were used when solubility limit was reached. Solutions were sterile filtered, and three 4-fold serial dilutions were arranged in 96 well plates, aiming at covering a broad range of drug concentrations. Inoculation and growth curve acquisition was performed as described for the MIC determination experiments.

E. coli IAI1 = conditions: 50 μM drug
Procedure: as §2

C. saccharolyticum = conditions: 50 μM drug
Procedure: as §2

In the case of `CC(C)(O)c1ccccc1CC[C@@H](SCC1(CC(=O)O)CC1)c1cccc(/C=C/c2ccc3ccc(Cl)cc3n2)c1` [montelukast], the “predominant mode of depletion” value [1] is reported as “bioaccumulation” and the “depletion mode: bioaccumulation or biodegradation (in words)” value ([1]; supernatant vs total extraction) is reported as “bioaccumulated and then partially degraded by several bacterial strains”.

In the case of `C[C@H](Cn1cnc2c(N)ncnc21)OCP(=O)(O)O` [tenofovir], the “depletion of drug from the medium by bacterial strains (in words)” value (25 gut bacterial strains [2]) is reported as “neither being depleted” and the “effect on bacterial growth in the screen” value (25 gut bacterial strains [3]) is reported as “nor affecting bacterial growth”.

In the case of `CC[C@@H]([C@H](C)O)n1ncn(-c2ccc(N3CCN(c4ccc(OC[C@@H]5CO[C@@](Cn6cncn6)(c6ccc(F)cc6F)C5)cc4)CC3)cc2)c1=O` [posaconazole], the “maximum concentration in the duodenum” value ([4]; 40 mg (57 μmol) delivered to the stomach in acidic solution) is listed as 26.3 ± 10.3 µM and the “maximum concentration in the duodenum” value ([4]; 40 mg (57 μmol) delivered to the stomach in neutral solution) is listed as 13.6 ± 5.8 µM.

With `O=C1[C@H](CC[C@H](O)c2ccc(F)cc2)[C@@H](c2ccc(O)cc2)N1c1ccc(F)cc1` [ezetimibe] the “depletion of drug from the medium by bacterial strains (in words)” value (25 gut bacterial strains [2]) was “interacting only with a few bacterial strains”.

In the case of `CN(C)C(=N)N=C(N)N` [Metformin], the “anticommensal activity at concentrations higher than the 20 μM of the screen” value (gut bacterial strains) is reported as “verified”.

For `CNCC[C@H](Oc1cccc2ccccc12)c1cccs1` [duloxetine], the “effect on growth of E. coli IAI1” value (E. coli IAI1) was “inhibiting growth” and the “effect on growth of C. saccharolyticum” value (C. saccharolyticum) was “inhibiting growth”.

Reference: patent publication US12584098B2, “In-vitro model of the human gut microbiome and uses thereof in the analysis of the impact of xenobiotics” (EUROPEAN MOLECULAR BIOLOGY LABORATORY, priority 2018, dated 2026)
